Measurements: paper PMC7680126, “Structural asymmetry governs the assembly and GTPase activity of McrBC restriction complexes” (Nature Communications, 2020)

What was measured:
TgMcrB (full-length) = molecular target: T1, TgMcrB (full-length) (Thermococcus gammatolerans, UniProt C5A3Z3); experiment: malachite green phosphate release; assay type: biochemical; details: 1 mM GTP, 65 °C, pH 8.0, 150 mM KCl, 5 mM MgCl2; no McrC
T1 construct: gene TGAM_0453; full-length, residues 1-613; 6xHis tag cut by HRV 3C (Gly-Pro left); E. coli BL21(DE3); hexamer

TgMcrBC complex = molecular target: T2, TgMcrBC complex (Thermococcus gammatolerans, UniProt C5A3Z3); experiment: malachite green phosphate release; assay type: biochemical; details: 1 mM GTP, 0.1 μM TgMcrC, 65 °C, pH 8.0, 150 mM KCl, 5 mM MgCl2
T2 construct: gene TGAM_0453; full-length McrB (1-613) and McrC (1-458); tags cut by HRV 3C (Gly-Pro left); E. coli; with McrC, endonuclease subunit of McrBC restriction complex (5-methylcytosine restriction system component McrC)
T2 sequence (C5A3Z3 1-613): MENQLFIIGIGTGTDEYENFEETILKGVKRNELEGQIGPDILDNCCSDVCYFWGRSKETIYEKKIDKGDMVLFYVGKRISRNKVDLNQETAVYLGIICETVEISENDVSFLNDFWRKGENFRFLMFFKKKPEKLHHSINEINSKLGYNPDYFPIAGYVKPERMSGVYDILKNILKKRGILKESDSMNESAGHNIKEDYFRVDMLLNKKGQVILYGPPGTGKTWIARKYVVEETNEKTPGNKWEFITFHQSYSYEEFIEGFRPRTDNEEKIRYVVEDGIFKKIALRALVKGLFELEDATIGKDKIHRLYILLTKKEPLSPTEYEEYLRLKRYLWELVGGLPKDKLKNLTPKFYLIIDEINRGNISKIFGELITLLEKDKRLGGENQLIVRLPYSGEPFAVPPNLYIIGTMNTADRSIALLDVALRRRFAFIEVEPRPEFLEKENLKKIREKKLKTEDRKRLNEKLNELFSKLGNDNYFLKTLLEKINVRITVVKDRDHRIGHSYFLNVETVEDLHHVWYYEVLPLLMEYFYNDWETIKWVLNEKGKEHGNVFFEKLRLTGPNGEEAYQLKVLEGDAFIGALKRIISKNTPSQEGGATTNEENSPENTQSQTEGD
T2 sequence (C5A3Z2 1-458 partner): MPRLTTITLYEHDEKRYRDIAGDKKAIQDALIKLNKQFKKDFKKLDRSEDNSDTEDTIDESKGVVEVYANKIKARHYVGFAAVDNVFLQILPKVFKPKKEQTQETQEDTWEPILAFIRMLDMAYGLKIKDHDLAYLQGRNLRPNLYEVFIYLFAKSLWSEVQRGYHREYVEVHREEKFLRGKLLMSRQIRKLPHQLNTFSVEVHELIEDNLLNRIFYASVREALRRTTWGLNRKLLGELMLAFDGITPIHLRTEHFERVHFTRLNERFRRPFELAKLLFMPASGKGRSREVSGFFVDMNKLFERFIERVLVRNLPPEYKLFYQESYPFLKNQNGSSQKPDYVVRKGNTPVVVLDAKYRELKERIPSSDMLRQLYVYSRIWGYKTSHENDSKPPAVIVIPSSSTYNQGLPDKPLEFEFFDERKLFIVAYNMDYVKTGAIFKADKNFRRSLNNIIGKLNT

Q: Which “basal GTPase activity” value (TgMcrB (full-length)) does the source give for `Nc1nc2c(ncn2[C@@H]2O[C@H](COP(=O)(O)OP(=O)(O)OP(=O)(O)O)[C@@H](O)[C@H]2O)c(=O)[nH]1` [GTP] here?
A: Alanine substitutions at Asn410 and Asp413 in full-length TgMcrB abolish both basal and McrC-stimulated GTPase activity

Q: What about the “McrC-stimulated GTPase activity” value (TgMcrBC complex) of the same molecule?
A: Purified TgMcrC similarly stimulates TgMcrB’s basal GTPase activity
